One may read the IC50 as the point on the concentration scale where inhibition reaches its midpoint.

The assay deals with T1, purified human HDAC6 (Homo sapiens, UniProt Q9UBN7).
T1 construct: purchased BPS Bioscience 5006
T1 sequence (Q9UBN7 1-1215): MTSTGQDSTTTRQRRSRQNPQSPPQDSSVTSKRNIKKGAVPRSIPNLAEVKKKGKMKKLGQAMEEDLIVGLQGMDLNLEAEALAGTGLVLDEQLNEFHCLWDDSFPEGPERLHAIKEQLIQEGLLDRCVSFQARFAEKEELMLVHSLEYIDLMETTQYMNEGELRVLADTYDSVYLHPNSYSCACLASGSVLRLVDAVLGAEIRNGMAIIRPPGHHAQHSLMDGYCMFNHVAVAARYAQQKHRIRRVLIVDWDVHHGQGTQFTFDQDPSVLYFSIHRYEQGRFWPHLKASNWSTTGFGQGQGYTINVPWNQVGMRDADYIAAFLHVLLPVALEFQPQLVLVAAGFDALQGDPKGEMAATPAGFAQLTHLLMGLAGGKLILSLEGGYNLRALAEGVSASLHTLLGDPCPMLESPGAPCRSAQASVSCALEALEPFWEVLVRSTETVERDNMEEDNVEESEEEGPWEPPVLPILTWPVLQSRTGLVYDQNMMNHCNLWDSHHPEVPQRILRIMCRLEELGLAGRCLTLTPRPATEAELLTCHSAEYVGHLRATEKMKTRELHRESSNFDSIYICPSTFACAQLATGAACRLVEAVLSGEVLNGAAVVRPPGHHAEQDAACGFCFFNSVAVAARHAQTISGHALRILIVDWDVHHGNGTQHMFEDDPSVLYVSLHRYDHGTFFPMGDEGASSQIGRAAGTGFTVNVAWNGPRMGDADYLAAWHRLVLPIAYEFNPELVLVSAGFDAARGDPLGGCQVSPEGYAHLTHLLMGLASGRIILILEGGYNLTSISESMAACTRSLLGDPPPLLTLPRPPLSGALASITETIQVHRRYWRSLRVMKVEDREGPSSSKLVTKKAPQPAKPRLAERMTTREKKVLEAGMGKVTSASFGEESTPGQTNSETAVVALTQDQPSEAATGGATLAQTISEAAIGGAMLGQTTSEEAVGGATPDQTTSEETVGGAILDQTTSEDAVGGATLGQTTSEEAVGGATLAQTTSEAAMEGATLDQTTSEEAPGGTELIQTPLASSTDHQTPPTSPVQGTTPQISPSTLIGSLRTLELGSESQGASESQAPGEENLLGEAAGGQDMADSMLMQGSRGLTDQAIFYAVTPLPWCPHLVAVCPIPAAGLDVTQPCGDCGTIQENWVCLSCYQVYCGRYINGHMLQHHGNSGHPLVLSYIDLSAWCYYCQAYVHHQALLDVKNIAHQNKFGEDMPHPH
Briefly: HDAC6 Enzyme Assay. The class given is biochemical. How it is done: To measure the inhibition of HDAC6 activity, purified human HDAC6 (BPS Bioscience; Cat. No. 5006) is incubated with substrate Ac-Arg-Gly-Lys(Ac)-AMC peptide (Bachem Biosciences; Cat. No. I-1925) for 1 hour at 30° C. in the presence of test compounds or vehicle DMSO control. The reaction is stopped with the HDAC inhibitor trichostatin A (Sigma; Cat. No. T8552) and the amount of Arg-Gly-Lys-AMC generated is quantitated by digestion with trypsin (Sigma; Cat. No. T1426) and subsequent measurement of the amount of AMC released using a fluorescent plate reader (Pherastar; BMG Technologies) set at Ex 340 nm and Em 460 nm. Concentration response curves are generated by calculating the fluorescence increase in test compound-treated samples relative to DMSO-treated controls, and enzyme inhibition (IC50) values are determined from those curves.

Compound `O=C(NO)c1ccc2c(c1)CCN(Cc1ccc3nonc3c1)C2` [Compound 65, 2-(2,1,3-benzoxadiazol-5-ylmethyl)-N-hydroxy-1,2,3,4-tetrahydroisoquinoline-6-carboxamide] yielded an IC50 of 100 to 500 nM.

In turn, `O=C(NO)c1ccc2c(c1)CCN(Cc1ccc(C(F)(F)F)cc1)C2` [Compound 66, N-hydroxy-2-[4-(trifluoromethyl)benzyl]-1,2,3,4-tetrahydroisoquinoline-6-carboxamide] returned an IC50 of 100 to 500 nM.

As for `O=C(NO)c1ccc2c(c1)CCN(CCCOc1ccccc1)C2` [Compound 67, N-hydroxy-2-(3-phenoxypropyl)-1,2,3,4-tetrahydroisoquinoline-6-carboxamide], the IC50 was 100 to 500 nM.

`O=C(NO)c1ccc2c(c1)CCN(Cc1ccc(-n3cccn3)cc1)C2` [Compound 68, N-hydroxy-2-[4-(1H-pyrazol-1-yl)benzyl]-1,2,3,4-tetrahydroisoquinoline-6-carboxamide] gave an IC50 of 100 to 500 nM.

The compound `O=C(NO)c1ccc2c(c1)CCN(Cc1cccc3nsnc13)C2` [Compound 69, 2-(2,1,3-benzothiadiazol-4-ylmethyl)-N-hydroxy-1,2,3,4-tetrahydroisoquinoline-6-carboxamide] gave an IC50 of 100 to 500 nM. As for `O=C(NO)c1ccc2c(c1)CCN(Cc1nc(-c3ccc(Cl)cc3)no1)C2` [Compound 71, 2-{[3-(4-chlorophenyl)-1,2,4-oxadiazol-5-yl]methyl}-N-hydroxy-1,2,3,4-tetrahydroisoquinoline-6-carboxamide], the IC50 lay in the range of 50 to 100 nM. The result for `COc1ccccc1-c1nc(CN2CCc3cc(C(=O)NO)ccc3C2)no1` [Compound 72, N-hydroxy-2-{[5-(2-methoxyphenyl)-1,2,4-oxadiazol-3-yl]methyl}-1,2,3,4-tetrahydroisoquinoline-6-carboxamide] reads less than 50 nM; that for `O=C(NO)c1ccc2c(c1)CCN(CCC(=O)N1CCc3ccccc31)C2` [Compound 73, 2-[3-(2,3-dihydro-1H-indol-1-yl)-3-oxopropyl]-N-hydroxy-1,2,3,4-tetrahydroisoquinoline-6-carboxamide], 50 to 100 nM.

`O=C(NO)c1ccc2c(c1)CCN(Cc1nccn1Cc1ccccc1)C2` [Compound 74, 2-[(1-benzyl-1H-imidazol-2-yl)methyl]-N-hydroxy-1,2,3,4-tetrahydroisoquinoline-6-carboxamide] had an IC50 of more than 500 nM. `O=C(NO)c1ccc2c(c1)CCN(c1nc(-c3ccc4c(c3)OCCO4)cs1)C2` [Compound 75, 2-[4-(2,3-dihydro-1,4-benzodioxin-6-yl)-1,3-thiazol-2-yl]-N-hydroxy-1,2,3,4-tetrahydroisoquinoline-6-carboxamide] yielded an IC50 of less than 50 nM. The value for `Cc1c(-c2csc(N3CCc4cc(C(=O)NO)ccc4C3)n2)sc2ccccc12` [Compound 76, N-hydroxy-2-[4-(3-methyl-1-benzothien-2-yl)-1,3-thiazol-2-yl]-1,2,3,4-tetrahydroisoquinoline-6-carboxamide] was 50 to 100 nM. Compound `O=C(NO)c1ccc2c(c1)CCN(c1nc(-c3cccc(Cl)c3)cs1)C2` [Compound 77, 2-[4-(3-chlorophenyl)-1,3-thiazol-2-yl]-N-hydroxy-1,2,3,4-tetrahydroisoquinoline-6-carboxamide] had an IC50 of less than 50 nM. The value for `Cn1cccc1C(=O)N1Cc2ccc(C(=O)NO)cc2C1` [Compound 78, N-hydroxy-2-[(1-methyl-1H-pyrrol-2-yl)carbonyl]isoindoline-5-carboxamide] was less than 50 nM; that for `COc1cc(Cl)ccc1C(=O)N1Cc2ccc(C(=O)NO)cc2C1` [Compound 79, 2-(4-chloro-2-methoxybenzoyl)-N-hydroxyisoindoline-5-carboxamide] was less than 50 nM.

The compound `CC(C)(C(=O)N1Cc2ccc(C(=O)NO)cc2C1)c1ccc(Cl)cc1` [Compound 80, 2-[2-(4-chlorophenyl)-2-methylpropanoyl]-N-hydroxyisoindoline-5-carboxamide] displayed an IC50 of less than 50 nM. Consider `CC(C)(C)C(=O)N1Cc2ccc(C(=O)NO)cc2C1` [Compound 81, 2-(2,2-dimethylpropanoyl)-N-hydroxyisoindoline-5-carboxamide], for which the IC50 was in the range of 50 to 100 nM. `CC(C)(C)C(=O)N1CCCc2cc(C(=O)NO)ccc2C1` [Compound 82, 2-(2,2-dimethylpropanoyl)-N-hydroxy-2,3,4,5-tetrahydro-1H-2-benzazepine-7-carboxamide] displayed an IC50 of 100 to 500 nM.

In the case of `Cn1cccc1C(=O)N1CCCc2cc(C(=O)NO)ccc2C1` [Compound 83, N-hydroxy-2-[(1-methyl-1H-pyrrol-2-yl)carbonyl]-2,3,4,5-tetrahydro-1H-2-benzazepine-7-carboxamide], the half-inhibitory concentration (IC50) is 100 to 500 nM. The result for `O=C(NO)c1ccc2c(c1)CCCN(C(=O)c1ccc(C(F)(F)F)cc1)C2` [Compound 84, N-hydroxy-2-[4-(trifluoromethyl)benzoyl]-2,3,4,5-tetrahydro-1H-2-benzazepine-7-carboxamide] reads more than 500 nM. As to `CC(C)(C)C(=O)N1CCc2ccc(C(=O)NO)cc2CC1` [Compound 85, 3-(2,2-dimethylpropanoyl)-N-hydroxy-2,3,4,5-tetrahydro-1H-3-benzazepine-7-carboxamide], the IC50 lay within 100 to 500 nM. `Cn1cccc1C(=O)N1CCc2ccc(C(=O)NO)cc2CC1` [Compound 86, N-hydroxy-3-[(1-methyl-1H-pyrrol-2-yl)carbonyl]-2,3,4,5-tetrahydro-1H-3-benzazepine-7-carboxamide]: the IC50 lay in the range of 100 to 500 nM. As to `O=C(NO)c1ccc2c(c1)CCN(C(=O)c1ccc(C(F)(F)F)cc1)CC2` [Compound 87, N-hydroxy-3-[4-(trifluoromethyl)benzoyl]-2,3,4,5-tetrahydro-1H-3-benzazepine-7-carboxamide], the IC50 was in the range of 100 to 500 nM. For the compound `CC(C)(C(=O)N1CCc2ccc(C(=O)NO)cc2CC1)c1ccc(Cl)cc1` [Compound 88, 3-[2-(4-chlorophenyl)-2-methylpropanoyl]-N-hydroxy-2,3,4,5-tetrahydro-1H-3-benzazepine-7-carboxamide], the IC50 was less than 50 nM.

For the compound `O=C(NO)c1ccc2c(c1)CCN(C(=O)Nc1ccc3c(c1)CCO3)C2` [Compound 89, N^2-(2,3-dihydro-1-benzofuran-5-yl)-N^6-hydroxy-3,4-dihydroisoquinoline-2,6(1H)-dicarboxamide], the IC50 was less than 50 nM. `O=C(NO)c1ccc2c(c1)CCN(C(=O)Nc1ccc3c(c1)OCO3)C2` [Compound 90, N^2-1,3-benzodioxol-5-yl-N^6-hydroxy-3,4-dihydroisoquinoline-2,6(1H)-dicarboxamide] gave an IC50 of less than 50 nM. Compound `O=C(NO)c1ccc2c(c1)CCN(C(=O)NCCc1ccccc1)C2` [Compound 91, N^6-hydroxy-N^2-(2-phenylethyl)-3,4-dihydroisoquinoline-2,6(1H)-dicarboxamide] returned an IC50 of less than 50 nM.

As to `O=C(NO)c1ccc2c(c1)CCN(C(=O)Nc1ccc(OC(F)(F)F)cc1)C2` [Compound 92, N^6-hydroxy-N^2-[4-(trifluoromethoxy)phenyl]-3,4-dihydroisoquinoline-2,6(1H)-dicarboxamide], the IC50 was less than 50 nM. The value for `CCC(C)NC(=O)N1CCc2cc(C(=O)NO)ccc2C1` (stereo not drawn) [Compound 93, N^2-(sec-butyl)-N^6-hydroxy-3,4-dihydroisoquinoline-2,6(1H)-dicarboxamide] was less than 50 nM; that for `CCc1cccc(C)c1NC(=O)N1CCc2cc(C(=O)NO)ccc2C1` [Compound 94, N^2-(2-ethyl-6-methylphenyl)-N^6-hydroxy-3,4-dihydroisoquinoline-2,6(1H)-dicarboxamide] was less than 50 nM. The compound `O=C(NO)c1ccc2c(c1)CCN(C(=O)Nc1ccc(-c3ccccc3)s1)C2` [Compound 95, N^6-hydroxy-N^2-(5-phenyl-2-thienyl)-3,4-dihydroisoquinoline-2,6(1H)-dicarboxamide] gave an IC50 of less than 50 nM.
